We go through seven molecules from patent US7511133B2, “Adenosine A3 receptor agonists” (King Pharmaceuticals Research and Development, Inc., priority 2003, dated 2009).

Series [1] concerns the target T1, human A2A adenosine receptors (Homo sapiens, UniProt P29274).
T1 construct: expressed in transfected cells; host or cells: CHO cells
The series is described as follows: Displacement of [^3H]CGS21680 binding, human A2A adenosine receptors in CHO cells (agonist radioligand).

Series [2] deals with T2, human A1 receptors (Homo sapiens, UniProt P30542).
T2 construct: expressed in transfected cells; host or cells: CHO cells
T2 sequence (P30542 1-326): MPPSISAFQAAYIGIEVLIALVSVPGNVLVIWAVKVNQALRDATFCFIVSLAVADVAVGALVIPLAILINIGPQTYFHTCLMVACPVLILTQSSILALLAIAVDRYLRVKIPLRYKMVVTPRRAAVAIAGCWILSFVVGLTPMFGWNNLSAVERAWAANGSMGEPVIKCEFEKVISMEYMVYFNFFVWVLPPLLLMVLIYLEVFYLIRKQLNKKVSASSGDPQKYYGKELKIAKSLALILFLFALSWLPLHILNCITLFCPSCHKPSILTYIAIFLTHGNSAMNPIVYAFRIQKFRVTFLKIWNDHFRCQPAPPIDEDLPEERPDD
The series is described as follows: [^3H] DPCPX binding to human A1 receptors expressed in CHO cells (antagonist radioligand). The procedure:
Binding assay methodology for the human data with antagonist radioligands. […] Arch. […] The cells were grown adherently and maintained in Dulbecco's Modified Eagles Medium with nutrient mixture F12 (DMEM/F12) without nucleosides, containing 10% fetal calf serum, penicillin (100 U/ml), streptomycin (100 μg/ml), L-glutamine (2 mM) and Geneticin (G418, 0.2 mg/ml) at 37° C. in 5% CO2/95% air. Cells were split 2 or 3 times weekly at a ratio between 1:5 and 1:20. For membrane preparation the culture medium was removed and the cells were washed with PBS and scraped off T75 flasks in ice-cold hypotonic buffer (5 mM Tris HCl, 2 mM EDTA, pH 7.4). The cell suspension was homogenized with Polytron and the homogenate was spun for 10 min at 1,000×g. The supernatant was then centrifuged for 30 min at 100,000×g. The membrane pellet was resuspended in 50 mM Tris HCl buffer pH 7.4 (for A3 adenosine receptors: 50 mM Tris HCl, 10 mM MgCl2, 1 mM EDTA) and incubated with 3 UI/ml of Adenosine deaminase for 30 min at 37° C. Then the suspension was frozen at −80° C. HEK 293 cells transfected with the human recombinant A2B adenosine receptor were obtained from Receptor Biology, Inc. (Beltsville, Md., USA).
Displacement experiments were performed for 120 min at 25° C. in 0.2 ml of 50 mM Tris HCl buffer pH 7.4 containing 1 nM [3H]-DPCPX, diluted membranes (50 μg of protein/assay) and at least 6-8 different concentrations of antagonists studied. Non-specific binding was determined in the presence of 10 μM of CHA and this was always ≦10% of the total binding.

Series [3] deals with T3, human A2A receptors (Homo sapiens, UniProt P29274).
T3 construct: expressed in transfected cells; host or cells: CHO cells
T3 sequence (P29274 whole entry): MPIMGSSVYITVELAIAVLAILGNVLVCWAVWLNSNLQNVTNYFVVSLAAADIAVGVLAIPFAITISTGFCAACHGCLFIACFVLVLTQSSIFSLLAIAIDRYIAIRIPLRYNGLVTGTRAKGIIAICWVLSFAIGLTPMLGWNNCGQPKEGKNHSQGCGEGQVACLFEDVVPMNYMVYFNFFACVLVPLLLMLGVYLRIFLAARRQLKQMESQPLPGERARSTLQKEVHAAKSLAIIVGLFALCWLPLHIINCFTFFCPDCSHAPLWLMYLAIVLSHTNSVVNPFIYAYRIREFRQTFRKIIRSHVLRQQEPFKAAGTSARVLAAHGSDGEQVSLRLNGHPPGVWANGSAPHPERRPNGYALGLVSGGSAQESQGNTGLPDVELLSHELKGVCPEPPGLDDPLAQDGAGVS
The series is described as follows: [^3H] SCH58261 binding to human A2A receptors expressed in CHO cells (antagonist radioligand). On the procedure: (§1) Binding assay methodology for the human data with antagonist radioligands. […] Arch. Pharmacol. 357: 1-9, (1998). The cells were grown adherently and maintained in Dulbecco's Modified Eagles Medium with nutrient mixture F12 (DMEM/F12) without nucleosides, containing 10% fetal calf serum, penicillin (100 U/ml), streptomycin (100 μg/ml), L-glutamine (2 mM) and Geneticin (G418, 0.2 mg/ml) at 37° C. in 5% CO2/95% air. Cells were split 2 or 3 times weekly at a ratio between 1:5 and 1:20. For membrane preparation the culture medium was removed and the cells were washed with PBS and scraped off T75 flasks in ice-cold hypotonic buffer (5 mM Tris HCl, 2 mM EDTA, pH 7.4). The cell suspension was homogenized with Polytron and the homogenate was spun for 10 min at 1,000×g. The supernatant was then centrifuged for 30 min at 100,000×g. The membrane pellet was resuspended in 50 mM Tris HCl buffer pH 7.4 (for A3 adenosine receptors: 50 mM Tris HCl, 10 mM MgCl2, 1 mM EDTA) and incubated with 3 UI/ml of Adenosine deaminase for 30 min at 37° C. Then the suspension was frozen at −80° C. HEK 293 cells transfected with the human recombinant A2B adenosine receptor were obtained from Receptor Biology, Inc. (Beltsville, Md., USA).
Binding of [^3H]-SCH 58261 to CHO cells transfected with the human recombinant A2A adenosine receptors (50 μg of protein/assay) was performed using 0.2 ml 50 mM Tris HCl buffer, 10 mM MgCl2 pH 7.4 and at least 6-8 different concentrations of antagonists studied for an incubation time of 30 min at 25° C.

The target of series [4] is T4, human A1 adenosine receptors (Homo sapiens, UniProt P30542).
T4 sequence (P30542 1-326): T2 sequence (P30542 1-326)
The series is described as follows: Displacement of [^3H]CHA binding, human A1 adenosine receptors in CHO cells (agonist radioligand).

The target in series [5] is T5, human hA2B receptors (Homo sapiens, UniProt P29275).
T5 construct: host or cells: HEK 293 cells
T5 sequence (P29275 1-332): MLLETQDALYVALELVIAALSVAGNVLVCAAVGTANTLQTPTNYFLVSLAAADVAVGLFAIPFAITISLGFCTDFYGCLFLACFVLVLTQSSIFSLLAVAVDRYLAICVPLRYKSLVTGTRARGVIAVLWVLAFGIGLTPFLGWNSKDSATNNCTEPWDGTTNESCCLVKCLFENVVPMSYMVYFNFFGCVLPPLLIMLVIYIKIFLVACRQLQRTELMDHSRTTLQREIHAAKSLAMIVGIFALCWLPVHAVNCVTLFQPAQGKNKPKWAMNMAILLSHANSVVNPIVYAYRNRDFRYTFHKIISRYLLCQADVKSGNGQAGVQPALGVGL
The series is described as follows: [^3H] DPCPX binding to human hA2B receptors expressed in HEK293 cells (antagonist radioligand). On the procedure:
as §1
Competition experiments of [^3H]-DPCPX to HEK-293 cells transfected with the human recombinant A^2B adenosine receptor were performed for 60 min at 25° C. in 0.1 ml of 50 mM Tris HCl buffer, 10 mM MgCl2, 1 mM EDTA, 0.1 mM benzamidine pH 7.4, 2 IU/ml adenosine deaminase containing 34 nM [^3H]-DPCPX, diluted membranes (20 μg of protein/assay) and at least 6-8 different concentrations of selected compounds.

In series [6] the target is T6, human A3 receptors (Homo sapiens, UniProt P0DMS8).
T6 construct: expressed in transfected cells; host or cells: CHO cells
T6 sequence (P0DMS8 1-318): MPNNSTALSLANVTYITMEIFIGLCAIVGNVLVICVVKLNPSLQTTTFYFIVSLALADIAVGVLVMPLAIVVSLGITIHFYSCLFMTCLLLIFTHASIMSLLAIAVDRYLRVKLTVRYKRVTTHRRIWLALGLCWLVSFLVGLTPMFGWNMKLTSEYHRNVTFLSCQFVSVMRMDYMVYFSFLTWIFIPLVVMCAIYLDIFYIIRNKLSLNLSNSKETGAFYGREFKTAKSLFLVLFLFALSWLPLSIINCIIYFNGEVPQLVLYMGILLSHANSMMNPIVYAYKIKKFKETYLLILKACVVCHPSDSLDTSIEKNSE
The series is described as follows: [^3H] MRE3008F20 binding to human A3 receptors expressed in CHO cells (antagonist radioligand). On the procedure:
as §1
Binding of [^3H]-MRE 3008F20 to CHO cells transfected with the human recombinant A3 adenosine receptors was performed according to Varani et al., 2000. Competition experiments were carried out in duplicate in a final volume of […] in test tubes containing 1 nM [^3H]-MRE 3008F20, 50 mM Tris HCl buffer, 10 mM MgCl2, 1 mM EDTA pH 7.4 and 100 μl of diluted membranes (50 μg of protein/assay) and at least 8-10 different concentrations of examined antagonists. Incubation time was 120 min at 4° C., according to the results of previous time-course experiments.

The target in series [7] is T7, human A3 adenosine receptors (Homo sapiens, UniProt P0DMS8).
T7 sequence (P0DMS8 1-318): T6 sequence (P0DMS8 1-318)

Setting [8] is: human A2A, CHO cells, [^3H]CGS21680, read-out: Ki(A2A). Displacement of [^3H]CGS21680 binding to human A2A adenosine receptors exp. in CHO cells.
[9] abbreviates: human A1, CHO cells, antagonist radioligand, read-out: [^3H] DPCPX binding to human A1 receptors expressed in CHO cells Ki.
The mark [10] stands for this setting: human A2A, CHO cells, antagonist radioligand, read-out: [^3H] SCH58261 binding to human A2A receptors expressed in CHO cells Ki.
The mark [11] stands for this setting: human A2B, HEK293 cells, antagonist radioligand, read-out: [^3H] DPCPX binding to human hA2B receptors expressed in HEK293 cells Ki.
The mark [12] stands for this setting: human A3, CHO cells, antagonist radioligand, read-out: [^3H] MRE3008F20 binding to human A3 receptors expressed in CHO cells Ki.

Read-outs that look alike come from different tables or passages of the source.

T1 sequence (P29274 whole entry): as the sequence (P29274 whole entry) above

As for `CCNC(=O)[C@H]1O[C@@H](n2cnc3c(NC(=O)Nc4ccc(S(=O)(=O)Nc5ccc(OC)cc5)cc4)ncnc32)[C@H](O)[C@@H]1O` [Compound 88, 1-Deoxy-1-[6-[[[[4-[N-(4-methoxyphenyl)aminosulfonyl]phenyl]-amino]carbo-nyl]amino]-9H-purin-9-yl]-N-ethyl-β-D-ribofuranuronamide], the inhibition constant Ki in series [1] (setting [8]) was > 1 µM; in series [2] (setting [9]) it was > 1 µM; in series [3] (setting [10]) it was > 1 µM; in series [4], 0.28 µM; in series [5] (setting [11]), > 1 µM.

As for `CCNC(=O)[C@H]1O[C@@H](n2cnc3c(NC(=O)Nc4ccc(S(=O)(=O)N(CCCl)CCCl)cc4)ncnc32)[C@H](O)[C@@H]1O` [Compound 91, 1-Deoxy-1-[6-[[[[4-[N,N-bis(2-chloroethyl)aminosulfonyl]phenyl]-amino]carbonyl]amino]-9H-purin-9-yl]-N-ethyl-β-D-ribofuranuronamide], the inhibitory constant (Ki) is > 1 µM in series [1]; > 1 µM in series [2]; > 1 µM in series [3]; 0.12 µM in series [6]; 0.023 µM in series [7]; 0.73 µM in series [4]. Also, the Ki in series [5] is > 1 µM.

Molecule `CCNC(=O)[C@H]1O[C@@H](n2cnc3c(NC(=O)Nc4ccc(S(=O)(=O)N5CCCCC5)cc4)ncnc32)[C@H](O)[C@@H]1O` [Compound 83, 1-Deoxy-1-[6-[[[[4-[(piperidin-1-yl)sulfonyl]phenyl]amino]carbonyl]amino]-9H-purin-9-yl]-N-ethyl-β-D-ribofuranuronamide] showed a melting point of 176 to 178 °C. Moreover, the inhibition constant Ki in series [1] (setting [8]) was > 1 µM. For the same molecule, in series [3] (setting [10]), the inhibition constant (Ki) is > 1 µM. Besides, the inhibitory constant (Ki) in series [5] (setting [11]) is > 1 µM.

`CCNC(=O)[C@H]1O[C@@H](n2cnc3c(NC(=O)Nc4ccc(S(=O)(=O)NC5CCCCC5)cc4)ncnc32)[C@H](O)[C@@H]1O` [Compound 94, 1-Deoxy-1-[6-[[[[4-[N-(cyclohexyl)aminosulfonyl]phenyl]-amino]carbonyl]amino]-9H-purin-9-yl]-N-ethyl-β-D-ribofuranuronamide] displayed a melting point of 179 to 183 °C. For the same molecule, the inhibition constant (Ki) in series [1] (setting [8]) was > 1 µM. For the same molecule, the Ki in series [2] (setting [9]) is > 1 µM. The inhibitory constant (Ki) in series [3] (setting [10]) was > 1 µM. Besides, in series [4], affinity was put at a Ki of 0.35 µM. Moreover, the inhibition constant Ki in series [5] (setting [11]) is > 1 µM.

Molecule `C=CCN(C)S(=O)(=O)c1ccc(NC(=O)Nc2ncnc3c2ncn3[C@@H]2O[C@H](C(=O)NCC)[C@@H](O)[C@H]2O)cc1` [Compound 96, 1-Deoxy-1-[6-[[[[4-[N-(allyl)-N-(methyl)amino-sulfonyl]phenyl]amino]carbonyl]amino]-9H-purin-9-yl]-N-ethyl-β-D-ribofuranuronamide] had a melting point of 181 to 185 °C. Moreover, in series [1] (setting [8]), the Ki is > 1 µM. For the same molecule, the inhibitory constant (Ki) in series [3] (setting [10]) was > 1 µM. In addition, the Ki in series [6] (setting [12]) was determined as 0.05 µM. The affinity in series [7], expressed as Ki, was 0.01 µM. Besides, the Ki in series [5] (setting [11]) is > 1 µM.

In turn, `CCNC(=O)[C@H]1O[C@@H](n2cnc3c(NC(=O)Nc4ccc(S(=O)(=O)N5CCCC5)cc4)ncnc32)[C@H](O)[C@@H]1O` [Compound 90, 1-Deoxy-1-[6-[[[[4-[(pyrrolidin-1-yl)sulfonyl]phenyl]amino]carbonyl]amino]-9H-purin-9-yl]-N-ethyl-β-D-ribofuranuronamide] had a melting point of 204 to 205 °C. For the same molecule, in series [1] (setting [8]), the inhibition constant Ki is > 1 µM. The inhibitory constant (Ki) in series [3] (setting [10]) was > 1 µM. For the same molecule, the inhibition constant Ki in series [6] (setting [12]) worked out at 0.1 µM. The affinity in series [7] corresponds to a Ki of 0.022 µM. In addition, in series [5] (setting [11]), the Ki is > 1 µM.

For `CCNC(=O)[C@H]1O[C@@H](n2cnc3c(NC(=O)Nc4ccc(S(=O)(=O)NCc5ccccc5)cc4)ncnc32)[C@H](O)[C@@H]1O` [Compound 86, 1-Deoxy-1-[6-[[[[4-[N-(benzyl)aminosulfonyl]phenyl]amino]-carbonyl]amino]-9H-purin-9-yl]-N-ethyl-β-D-ribofuranuronamide], the Ki was > 1 µM in series [1] (setting [8]); > 1 µM in series [2] (setting [9]); > 1 µM in series [3] (setting [10]); 0.3 µM in series [4]; > 1 µM in series [5] (setting [11]).
